Test results taken from PMC8588310, “Identification and Preliminary Structure-Activity Relationship Studies of 1,5-Dihydrobenzo[e][1,4]oxazepin-2(3H)-ones That Induce Differentiation of Acute Myeloid Leukemia Cells In Vitro” (Molecules, 2021).
Converted amounts (≈) assume the structure as drawn.

Assays:
[1] = Semi-thermodynamic aqueous solubility; type: physicochemical; settings: thermodynamic from solid
Experimental: (§1) Determination of semi-thermodynamic solubility, metabolic stability in S9 fraction, Caco-2 permeability and PPB were performed by Cyprotex Ltd. (www.cyprotex.com, accessed on 22 October 2021) using their standard assays and as described on their website.

HL-60 cells = test: CD11b expression assay by flow cytometry in HL-60 cells; type: cell-based, human; settings: for EC50: Homo sapiens, HL-60, 96 h, 4-day (96 h) treatment, CD11b upregulation, read-out: EC50 [nM], %CD11b response in HL60 cells; for LipE (lipophilic efficiency): LipE = -LogEC50-cLogP, EC50 of CD11b assay in HL-60; for Activity in the CD11b assay: concentration-response
Experimental: (§2) Cells were treated with 1000 structurally diverse small molecules selected from a commercial library. A single point testing concentration of 10 µM was used. After 4 days, cells were stained with a CD11b antibody and analysed using flow cytometry. Compounds upregulating CD11b expression greater than 10% in at least three of the cell lines were considered as potential hits. Hit confirmation was undertaken as follows: first, the hit was re-tested at 10 µM both with the CD11b antibody and an isotype control to account for nonspecific binding. Secondly, the effect of the hit on cell proliferation and viability was evaluated through staining with DAPI to evaluate the number of dead cells, and with acridine orange to detect total cell numbers. Thirdly, the induction of differentiation caused by the compounds was confirmed through morphology assessment with Giemsa staining. Finally, the molecule was resynthesised and fully characterised to confirm structural authenticity. This fresh sample was then retested in the CD11b assay to generate a concentration-response curve. The study of proliferation and morphology was performed on a panel of six cell lines: HL-60, THP-1, OCI-AML3, KG-1, Kasumi-1 and ME-1.
Thus, structure-activity relationship studies were initiated, where the potency of the new analogues was evaluated through concentration-response testing using the CD11b assay in HL-60 cells. Lipophilic efficiency (LipE), which also accounts for lipophilicity, was also used to compare the quality of the analogues. Even though multiple parameters can influence activity in a cell-based assay, LipE is a useful guide to compare analogues.
PE mouse-anti-human-CD11b/Mac-1 (ICRF44, Cat 555388) and PE-mouse-IgG1-κ-isotype control (MOPC-21, Cat 555749) were purchased from BD Bioscience. Cells were suspended in 100 μL growth media (RPMI + 10% FBS + 1% L-glutamine) at a density of 2 × 10^4 cells/well of a V-bottom 96 well plate (Corning, Cat 3894) and grown for 96 h in the presence of compound at the required concentration. After 96 h, the plate was centrifuged, media was removed, and cells were resuspended in 50 µL of blocking buffer (IMDM, no phenol red + 10% FBS) containing 2.5 μL of either CD11b or isotype control antibody and incubated on ice in the dark for 20 min. Cells were washed twice in 200 μL of staining buffer (IMDM, no phenol red + 1% FBS) before being resuspended in 200 μL of staining buffer containing 1 μg/mL of DAPI to help identify dead cells. Flow cytometry data were collected on an Attune NxT and analysed using the Attune NxT software (Life Technologies).

[2] = Single dose PK study in male CD-1 mice; type: in vivo, mouse; settings: for bioavailability / half-life / Cmax / Tmax / Vd/F: mouse, whole blood; for bioavailability: 3 mg/kg po vs 0.33 mg/kg iv; for half-life: single dose 3 mg/kg po and 0.33 mg/kg iv, route of parameter not given; for half-life / Cmax / Tmax / Vd/F / Clobs / Clobs/F: blood; for Cmax / Tmax / Vd/F / Clobs/F: single dose 3 mg/kg po; for Vd/F: read-out: Vz/F; for Clobs: single dose 0.33 mg/kg iv
Description: In order to undertake a preliminary assessment of the pharmacokinetic (PK) profile of this compound class, three compounds were deemed to have sufficient intrinsic potency, solubility and in vitro metabolic stability properties to progress into a single dose in vivo PK study. […] […] […] Nonetheless, the clearance of the three compounds was high to moderate, and at this dose the in vitro EC50 was not reached.
Male CD-1 mice were used for the PK studies, with three for each treatment. […] Blood concentration was measured by LC-MS/MS over 24 h.

[3] = Metabolic stability in mouse S9 fraction; type: in vitro ADME; settings: ER = Clint/species flow rate (mice: 90 mL/min/kg)
Experimental: as §1
[22] Extraction ratio (ER) is calculated as the measured intrinsic clearance over the hepatic blood flow of each species (90 mL/min/kg for mice). It has the advantage over other parameters (half-life, clearance) that it is independent of the species used

porcine neuronal tubulin = biological target: T1, porcine neuronal tubulin (Sus scrofa, UniProt P02550+P02554); test: Microtubule (tubulin) polymerisation cell-free assay; type: biochemical
T1 construct: performed using porcine neuronal tubulin (Cytoskeleton, Inc, Denver, CO, USA, BK006P); purchased Cytoskeleton, Inc BK006P; host or cells: porcine brain (neuronal) tissue
Experimental: The microtubule polymerisation assay was performed using porcine neuronal tubulin (Cytoskeleton, Inc, Denver, CO, USA, BK006P) as an adaptation of the original method of Shelanski et al. and Lee et al. at Cytoskeleton, Inc.

OCI-AML3 cells = test: CD11b expression assay by flow cytometry in OCI-AML3 cells; type: cell-based; settings: Homo sapiens, OCI-AML-3, 96 h, 4-day treatment, resynthesised sample
Experimental: as §2, with “The study of proliferation and morphology was performed on a panel of six cell lines: HL-60, THP-1, OCI-AML3, KG-1, Kasumi-1 and ME-1.” left out
(§3) PE mouse-anti-human-CD11b/Mac-1 (ICRF44, Cat 555388) and PE-mouse-IgG1-κ-isotype control (MOPC-21, Cat 555749) were purchased from BD Bioscience. […] Flow cytometry data were collected on an Attune NxT and analysed using the Attune NxT software (Life Technologies).

[4] = test system: HL-60, THP-1, OCI-AML3, KG-1, Kasumi-1 and ME-1; test: Morphology assessment of stained cytospins; type: cell-based, human; settings: 10 µM, 4-day treatment, six cell lines
Experimental: as §2
Cells were prepared in staining buffer (IMDM, no phenol red + 2% FBS) at a concentration of approximately 1 × 10^5 cells/mL. […]

[5] = test system: HL-60, THP-1, OCI-AML3, KG-1, Kasumi-1 and ME-1; test: Cell counts and viability (acridine orange / DAPI); type: cell-based, human; settings: 10 µM, 4 days
Experimental: as §2, with “The study of proliferation and morphology was performed on a panel of six cell lines: HL-60, THP-1, OCI-AML3, KG-1, Kasumi-1 and ME-1.” left out
Solution 13 containing acridin orange and DAPI was purchased from ChemoMetec (Cat 910-3013). After the appropriate cell treatment, one volume of solution 13 was added into 19 volumes of the premixed cell suspension and analysed using the NucleoCounter® NC-300^TM (ChemoMetec).

THP-1 cells = test: CD11b expression assay by flow cytometry in THP-1 cells; type: cell-based; settings: Homo sapiens, 96 h, 4-day treatment, resynthesised sample
Experimental: as §2, with “The study of proliferation and morphology was performed on a panel of six cell lines: HL-60, THP-1, OCI-AML3, KG-1, Kasumi-1 and ME-1.” left out
as §3

panel of kinases = test: Test against a panel of kinases; type: biochemical; settings: testing concentrations from 1 to 10 μM
DHODH = DHODH (Homo sapiens, UniProt Q02127); test: Test against DHODH; type: biochemical; settings: testing concentrations from 1 to 10 μM
Caco-2 permeability = type: in vitro ADME; settings: human
Experimental: as §1

FLT3 = biological target: T2, FLT3 (Homo sapiens, UniProt P36888); test: Test against FLT3; type: biochemical; settings: testing concentrations from 1 to 10 μM
T2 sequence (P36888 27-993): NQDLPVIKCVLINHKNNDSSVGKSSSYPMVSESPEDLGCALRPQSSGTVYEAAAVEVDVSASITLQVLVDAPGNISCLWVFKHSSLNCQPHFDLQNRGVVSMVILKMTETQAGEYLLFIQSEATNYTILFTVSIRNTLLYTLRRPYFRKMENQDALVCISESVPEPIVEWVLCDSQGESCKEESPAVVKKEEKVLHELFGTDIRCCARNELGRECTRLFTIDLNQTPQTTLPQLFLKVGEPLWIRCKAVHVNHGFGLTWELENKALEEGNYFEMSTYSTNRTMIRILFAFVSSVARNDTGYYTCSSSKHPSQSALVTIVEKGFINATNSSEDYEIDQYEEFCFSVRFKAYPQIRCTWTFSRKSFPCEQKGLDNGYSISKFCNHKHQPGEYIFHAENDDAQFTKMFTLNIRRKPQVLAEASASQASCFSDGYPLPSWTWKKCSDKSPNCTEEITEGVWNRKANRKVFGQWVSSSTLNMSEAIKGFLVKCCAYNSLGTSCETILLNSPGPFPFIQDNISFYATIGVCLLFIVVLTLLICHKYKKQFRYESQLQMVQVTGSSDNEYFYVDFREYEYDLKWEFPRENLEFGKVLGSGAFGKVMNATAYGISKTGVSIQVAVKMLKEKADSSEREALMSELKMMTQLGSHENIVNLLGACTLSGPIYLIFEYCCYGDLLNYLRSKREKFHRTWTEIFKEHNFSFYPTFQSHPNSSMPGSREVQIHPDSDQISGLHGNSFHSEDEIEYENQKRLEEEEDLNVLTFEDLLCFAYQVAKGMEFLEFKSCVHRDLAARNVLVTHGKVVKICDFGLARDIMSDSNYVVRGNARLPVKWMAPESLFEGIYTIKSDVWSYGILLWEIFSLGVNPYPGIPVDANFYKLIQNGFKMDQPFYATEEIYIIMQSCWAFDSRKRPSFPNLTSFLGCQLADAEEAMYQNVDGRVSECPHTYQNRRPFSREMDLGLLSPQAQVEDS

Plasma protein binding = type: in vitro ADME; settings: % unbound, read-out: PPB, unbound
Experimental: as §1

[6] = aqueous (buffer or water not specified)
[7] = aqueous medium (buffer not specified)

T1 sequence (P02550 whole entry): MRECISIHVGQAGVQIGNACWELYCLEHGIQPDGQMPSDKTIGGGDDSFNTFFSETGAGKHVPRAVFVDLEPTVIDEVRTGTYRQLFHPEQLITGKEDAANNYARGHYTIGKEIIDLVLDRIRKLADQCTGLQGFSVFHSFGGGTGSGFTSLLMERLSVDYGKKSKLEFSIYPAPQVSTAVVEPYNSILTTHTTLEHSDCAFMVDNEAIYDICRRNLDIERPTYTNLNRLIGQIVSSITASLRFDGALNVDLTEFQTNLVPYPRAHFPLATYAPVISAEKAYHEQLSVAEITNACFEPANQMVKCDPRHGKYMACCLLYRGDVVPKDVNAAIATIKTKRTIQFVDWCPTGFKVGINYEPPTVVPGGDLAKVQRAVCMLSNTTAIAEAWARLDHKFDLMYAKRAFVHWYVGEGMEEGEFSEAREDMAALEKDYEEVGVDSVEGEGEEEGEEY
T1 sequence (P02554 whole entry): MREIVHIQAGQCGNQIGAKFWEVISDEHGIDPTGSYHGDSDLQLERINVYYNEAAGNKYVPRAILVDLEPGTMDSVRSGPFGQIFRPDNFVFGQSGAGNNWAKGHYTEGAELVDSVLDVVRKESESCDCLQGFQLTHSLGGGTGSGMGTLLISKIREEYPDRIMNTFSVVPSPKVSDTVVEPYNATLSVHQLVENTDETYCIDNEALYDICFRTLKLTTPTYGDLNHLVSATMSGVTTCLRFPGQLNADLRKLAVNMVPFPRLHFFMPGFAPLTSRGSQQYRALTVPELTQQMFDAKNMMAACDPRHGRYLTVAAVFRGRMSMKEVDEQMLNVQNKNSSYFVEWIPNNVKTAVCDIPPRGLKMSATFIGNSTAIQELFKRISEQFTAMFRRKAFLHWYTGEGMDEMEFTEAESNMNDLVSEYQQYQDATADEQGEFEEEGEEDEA
DHODH, sequence (Q02127 whole entry, species assumed): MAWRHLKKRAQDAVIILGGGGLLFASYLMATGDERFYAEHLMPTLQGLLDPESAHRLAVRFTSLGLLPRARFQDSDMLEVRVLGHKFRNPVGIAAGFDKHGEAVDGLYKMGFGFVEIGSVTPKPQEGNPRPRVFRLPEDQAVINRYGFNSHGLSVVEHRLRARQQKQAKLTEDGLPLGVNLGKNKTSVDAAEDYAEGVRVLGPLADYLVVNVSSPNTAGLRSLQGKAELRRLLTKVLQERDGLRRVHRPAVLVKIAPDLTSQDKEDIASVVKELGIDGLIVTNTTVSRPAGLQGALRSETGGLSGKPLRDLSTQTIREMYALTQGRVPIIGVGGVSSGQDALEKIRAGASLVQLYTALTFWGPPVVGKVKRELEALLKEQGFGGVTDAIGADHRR

CS(=O)(=O)Nc1cccc(-c2ccc3c(c2)N(CC(F)(F)F)C(=O)COC3)c1 [Compound 11, N-(3-(2-Oxo-1-(2,2,2-trifluoroethyl)-1,2,3,5-tetrahydrobenzo[e][1,4]oxazepin-8-yl)phenyl)methanesulfonamide]
solubility thermodynamic [1, 6]: 33 µM (≈ 13.7 µg/mL)
EC50 (HL-60 cells; HL-60 cells): 1900 nM
LipE (lipophilic efficiency) (HL-60 cells): 3.8
bioavailability [2]: 38%
half-life [2]: 5.8 h
Cmax [2]: 160 ng/mL
Tmax [2]: 0.33 h
Vd/F [2]: 73 L/kg
Clobs [2]: 61 mL/min/kg
Clobs/F [2]: 159 mL/min/kg
ER in mS9 (extraction ratio) [3]: 0.05

CC(C)N1C(=O)COCc2ccc(-c3ccccc3NS(C)(=O)=O)cc21 [Compound 25, N-(2-(1-Isopropyl-2-oxo-1,2,3,5-tetrahydrobenzo[e][1,4]oxazepin-8-yl)phenyl)methanesulfonamide]
Effect on polymerisation of tubulin (porcine neuronal tubulin; testing concentrations of up to 100 μM): did not have an effect
Activity in the CD11b assay (HL-60 cells; HL-60 cells): inactive
EC50 (HL-60 cells; HL-60 cells): > 30000 nM

COc1ccc(-c2ccc3c(c2)N(C(C)C)C(=O)COC3)cc1NS(C)(=O)=O [Compound 37, N-(5-(1-Isopropyl-2-oxo-1,2,3,5-tetrahydrobenzo[e][1,4]oxazepin-8-yl)-2-methoxyphenyl)methanesulfonamide]
solubility thermodynamic ([1]; aqueous (not further specified)): > 200 µM
EC50 (HL-60 cells; HL-60 cells): 1200 nM
LipE (lipophilic efficiency) (HL-60 cells): 4.2
ER in mS9 (extraction ratio) [3]: 1

CS(=O)(=O)Nc1cccc(-c2ccc3c(c2)N(CC2CC2)C(=O)OC3)c1 [Compound 41, N-(3-(1-(Cyclopropylmethyl)-2-oxo-1,4-dihydro-2H-benzo[d][1,3]oxazin-7-yl)phenyl)methanesulfonamide]
solubility thermodynamic [1, 7]: 77 µM (≈ 28.7 µg/mL)
Loss in activity compared to OXS003976 (HL-60 cells; CD11b EC50 in HL-60, vs OXS003976): 15 fold
EC50 (HL-60 cells; HL-60 cells): 15000 nM
LipE (lipophilic efficiency) (HL-60 cells): 2.5
ER in mS9 (extraction ratio) [3]: 0.54

CC(C)N1C(=O)COCc2ncc(-c3cccc(NS(C)(=O)=O)c3)cc21 [Compound 42, N-(3-(1-Isopropyl-2-oxo-1,2,3,5-tetrahydropyrido[3,2-e][1,4]oxazepin-8-yl)phenyl)methanesulfonamide]
solubility thermodynamic [1, 7]: > 200 µM
Activity in the CD11b assay (HL-60 cells; HL-60 cells): retained weak activity
EC50 (HL-60 cells; HL-60 cells): 2200 nM
LipE (lipophilic efficiency) (HL-60 cells): 4.9
ER in mS9 (extraction ratio) [3]: 0.09

CS(=O)(=O)Nc1cccc(-c2ccc3c(c2)N(CC2CC2)C(=O)COC3)c1 [OXS003976, N-(3-(1-(Cyclopropylmethyl)-2-oxo-1,2,3,5-tetrahydrobenzo[e][1,4]oxazepin-8-yl)phenyl)methanesulfonamide]
EC50 (OCI-AML3 cells): 950 nM
solubility thermodynamic [1, 6]: > 200 µM
Cell morphology [4]: induced morphological changes consistent with differentiation
CD11b expression vs isotype control (HL-60 cells; 10 µM, 4-day treatment, HL-60 cells): upregulated CD11b expression, but not the isotype control
EC50 (HL-60 cells; HL-60 cells): 770 nM
LipE (lipophilic efficiency) (HL-60 cells): 4.3
ER in mS9 (extraction ratio) [3]: 0.54
Cell proliferation and viability [5]: decreased cell proliferation and viability
EC50 (THP-1 cells): 3400 nM

CC(C)N1C(=O)COCc2ccc(-c3cccc(NS(C)(=O)=O)c3)cc21 [OXS007002, N-(3-(1-Isopropyl-2-oxo-1,2,3,5-tetrahydrobenzo[e][1,4]oxazepin-8-yl)phenyl)methanesulfonamide]
IC50 (porcine neuronal tubulin; read-out: IC50, inhibition of tubulin polymerisation): 3600 nM
solubility thermodynamic [1, 6]: > 200 µM
Activity against a panel of kinases (panel of kinases): inactive
Activity against DHODH (DHODH): inactive
EC50 (HL-60 cells; HL-60 cells): 620 nM
LipE (lipophilic efficiency) (HL-60 cells): 4.5
bioavailability [2]: 28%
half-life [2]: 4.9 h
Cmax [2]: 104 ng/mL
Tmax [2]: 0.42 h
Vd/F [2]: 101 L/kg
Clobs [2]: 73 mL/min/kg
Clobs/F [2]: 258 mL/min/kg
efflux ratio (Caco-2 permeability; Caco-2, read-out: EfR, efflux ratio (Caco-2)): 1.3
Papp (Caco-2 permeability; Caco-2 cell permeability): 31 ×10⁻⁶ cm/s
Activity against FLT3 (FLT3): inactive
ER in mS9 (extraction ratio) [3]: 0.33
fraction unbound (Plasma protein binding): 0.11
